Results on 11 compounds are retold here after US20260077051A1, “COMPOUNDS FOR THE DEGRADATION OF EGFR KINASE” (BeOne Medicines I GmbH, priority 2023, published 2026).

Experiment [1] has as its target T1, EGFR L858R (BaF3-L858R cells) (Homo sapiens, UniProt P00533, L858R).
T1 construct: host or cells: BaF3
Nature of the experiment: EGFR degradation in BaF3-L858R cells (HTRF assay). In kind it is cell-based. The note with it: 16 h treatment; for DC50: IC50(DC50) of EGFR degradation; for Dmax: maximum percentage of inhibition (degradation). The method, then:
BaF3-L858R (abbv. L858R) cell were purchased from Kangyuan Bochuang Biotechnology (Beijing) Co., Ltd.
(§1) H1975-#8 and BaF3-L858R cells are treated with compounds diluted in 0.1% DMSO cell culture medium on day 2, incubate for 16 h, 37° C., 5% CO2. the final concentration of compounds in all assay is start with 10 uM, 5-fold dilution, total 8 doses were included.
(§2) After 16 h treatment, for H1975-#8 cells, add 100 ul HTRF 1× lysis buffer to each well; for BaF3-L858R cells, add 20 μl 4× lysis buffer to each well; seal the plate and incubate 1 hour at room temperature on a plate shaker; Once the cells are lysed, 16 μL of cell lysate are transferred to a PE 384-well HTRF detection plate; 4 μL of pre-mixed HTRF antibodies are added to each well; Cover the plate with a plate sealer, spin 1000 rpm for 1 min, Incubate overnight at room temperature; Read on BMG PheraStar with HTRF protocol (337 nm-665 nm-620 nm).
(§3) The inhibition (degradation) percentage of the compound was calculated by the following equation:
(§4) High control=Cell group with added DMSO and without compound, indicating microplate readings without EGFR degradation;
(§5) Dmax is the maximum percentage of inhibition (degradation).
(§6) The IC50(DC50) value of a compound can be obtained by fitting the following equation
(§7) Wherein, X and Y are known values, and IC50, Hillslope, Top and Bottom are the parameters obtained by fitting with software. Y is the inhibition percentage (calculated from the equation), X is the concentration of the compound; IC50 is the concentration of the compound when the 50% inhibition is reached. The smaller the IC50 value is, the stronger the inhibitory ability of the compound is. Vice versa, the higher the IC50 value is, the weaker the ability the inhibitory ability of the compound is; Hillslope represents the slope of the fitted curve, generally around 1*; Bottom represents the minimum value of the curve obtained by data fitting, which is generally 0%±20%; Top represents the maximum value of the curve obtained by data fitting, which is generally 100%±20%. The experimental data were fitted by calculating and analyzing with Dotmatics data analysis software.
A general note: TR-FRET usually uses a lanthanide donor and a delayed reading to cut background.

The target in experiment [2] is T2, EGFR-L858R/C797S (H1975-clone #8 cells) (Homo sapiens, UniProt P00533, C797S/L858R).
T2 construct: expressed in transfected cells; host or cells: H1975 (lentiviral transduction, endogenous EGFR knocked out, single clone #8)
T2 sequence (P00533 25-1210 C797S/L858R): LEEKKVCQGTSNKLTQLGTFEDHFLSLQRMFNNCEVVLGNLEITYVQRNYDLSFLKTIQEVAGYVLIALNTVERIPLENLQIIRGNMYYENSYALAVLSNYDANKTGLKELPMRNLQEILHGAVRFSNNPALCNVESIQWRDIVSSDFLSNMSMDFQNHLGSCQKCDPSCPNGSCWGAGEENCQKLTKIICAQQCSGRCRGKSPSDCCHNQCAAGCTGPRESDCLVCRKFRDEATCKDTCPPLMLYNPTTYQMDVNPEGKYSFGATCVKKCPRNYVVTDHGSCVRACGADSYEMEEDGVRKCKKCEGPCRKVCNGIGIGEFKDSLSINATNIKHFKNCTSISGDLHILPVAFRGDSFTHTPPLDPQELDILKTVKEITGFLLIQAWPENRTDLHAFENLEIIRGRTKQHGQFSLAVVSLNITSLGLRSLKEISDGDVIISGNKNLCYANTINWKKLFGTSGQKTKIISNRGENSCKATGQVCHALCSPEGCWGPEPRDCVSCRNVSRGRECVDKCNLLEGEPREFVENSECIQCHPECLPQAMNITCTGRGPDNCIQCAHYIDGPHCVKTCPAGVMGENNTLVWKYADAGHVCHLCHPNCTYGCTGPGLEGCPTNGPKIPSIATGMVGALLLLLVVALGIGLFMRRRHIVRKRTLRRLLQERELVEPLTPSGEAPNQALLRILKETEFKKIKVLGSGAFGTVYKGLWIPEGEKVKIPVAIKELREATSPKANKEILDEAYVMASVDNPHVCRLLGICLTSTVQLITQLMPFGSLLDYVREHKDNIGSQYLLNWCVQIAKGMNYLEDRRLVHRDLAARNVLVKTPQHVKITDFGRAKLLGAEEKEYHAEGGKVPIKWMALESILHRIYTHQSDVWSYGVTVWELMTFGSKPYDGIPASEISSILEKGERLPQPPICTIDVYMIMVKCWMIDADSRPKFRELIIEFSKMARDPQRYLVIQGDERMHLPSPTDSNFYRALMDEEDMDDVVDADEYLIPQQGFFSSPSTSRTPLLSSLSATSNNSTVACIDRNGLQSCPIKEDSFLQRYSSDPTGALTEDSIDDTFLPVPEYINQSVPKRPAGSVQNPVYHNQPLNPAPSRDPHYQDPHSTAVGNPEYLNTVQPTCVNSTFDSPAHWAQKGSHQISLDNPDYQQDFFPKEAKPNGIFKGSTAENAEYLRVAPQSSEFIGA
Nature of the experiment: EGFR degradation in H1975-clone#8 (L858R/C797S) cells (HTRF assay). Type of experiment: cell-based. The note with it: 16 h treatment; for DC50: IC50(DC50) of EGFR degradation; for Dmax: maximum percentage of inhibition (degradation). The method, then: H1975-clone #8 (L858R/C797S): EGFR-L858R/C797S were stably expressed in H1975 cell lines by lentivirus-mediated over-expression, respectively. The EGFR over-expressed cells then underwent knockout, in which the EGFR targeting sgRNA was designed to only target the endogenous EGFR copies and preserve the exogenous EGFR copies. Followed by the knockout, the edited H1975 cells were seeded in 96 well plates at the concentration of […], cultured for about 2 weeks to allow single clones formation. The formed clones were screened by DNA sequencing and whole exon sequencing analysis for the desired edition. H1975-clone #8 were finally confirmed as homozygous L858R/C797S EGFR clones.
as §1, §2, §3, §4, §5, §6, §7

T1 sequence (P00533 25-1210 L858R): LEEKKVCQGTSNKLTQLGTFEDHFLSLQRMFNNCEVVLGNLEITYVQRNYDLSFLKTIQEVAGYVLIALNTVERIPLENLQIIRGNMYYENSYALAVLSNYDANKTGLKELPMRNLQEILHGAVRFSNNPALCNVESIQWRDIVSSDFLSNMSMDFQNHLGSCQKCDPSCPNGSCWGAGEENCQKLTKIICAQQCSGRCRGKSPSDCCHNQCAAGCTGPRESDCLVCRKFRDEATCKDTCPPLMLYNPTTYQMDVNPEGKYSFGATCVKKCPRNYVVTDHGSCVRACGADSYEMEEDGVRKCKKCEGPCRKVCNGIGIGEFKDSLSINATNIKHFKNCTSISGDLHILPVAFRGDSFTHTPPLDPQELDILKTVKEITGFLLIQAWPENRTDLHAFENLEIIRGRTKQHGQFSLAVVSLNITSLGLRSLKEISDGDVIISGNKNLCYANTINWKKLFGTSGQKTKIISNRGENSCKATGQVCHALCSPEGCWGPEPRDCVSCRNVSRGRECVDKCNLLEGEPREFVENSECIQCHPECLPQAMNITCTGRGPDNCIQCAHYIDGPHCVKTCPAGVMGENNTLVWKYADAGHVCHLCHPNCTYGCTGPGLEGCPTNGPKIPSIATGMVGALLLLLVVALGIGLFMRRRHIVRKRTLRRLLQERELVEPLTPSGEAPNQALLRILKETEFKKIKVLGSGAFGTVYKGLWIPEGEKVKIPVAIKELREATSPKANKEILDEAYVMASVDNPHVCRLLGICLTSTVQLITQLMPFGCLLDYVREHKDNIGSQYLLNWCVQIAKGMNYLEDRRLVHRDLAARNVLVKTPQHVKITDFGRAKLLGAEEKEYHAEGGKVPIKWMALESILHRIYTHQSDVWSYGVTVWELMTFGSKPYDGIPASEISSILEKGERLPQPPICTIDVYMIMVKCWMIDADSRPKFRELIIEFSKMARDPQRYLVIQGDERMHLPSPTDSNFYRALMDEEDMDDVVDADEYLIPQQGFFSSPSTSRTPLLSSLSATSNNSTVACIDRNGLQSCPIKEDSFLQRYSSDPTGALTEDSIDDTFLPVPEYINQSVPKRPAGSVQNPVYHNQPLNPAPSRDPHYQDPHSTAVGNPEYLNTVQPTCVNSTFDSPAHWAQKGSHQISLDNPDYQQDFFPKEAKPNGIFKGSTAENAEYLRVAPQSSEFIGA

Consider `Cc1cc2cc(n1)-c1cnn(C)c1OCC[C@H]1C[C@@H]1CN1/C(=N/C2=O)Nc2ccc(N3CCN(C4CN(C5CCN(c6ccc(C7CCC(=O)NC7=O)nc6C)CC5)C4)C[C@@H]3C)cc21` (stereo partly drawn) [Example 36, 3-(5-(4-(3-((S)-4-((7^1S,7^2R,E)-1^1,2^6-dimethyl-3-oxo-5^2,5^3-dihydro-1^1H,5^1H-10-oxa-4-aza-5 (2,1)-benzo[d]imidazola-2 (2,4)-pyridina-1 (4,5)-pyrazola-7 (1,2)-cyclopropanacyclodecaphane-5^6-yl)-3-methylpiperazin-1-yl)azetidin-1-yl)piperidin-1-yl)-6-methylpyridin-2-yl)piperidine-2,6-dione], for which, in experiment [1], the 50% degradation concentration (DC50) amounted to 13.4 nM and the Dmax is 68.5%. In experiment [2], this compound displayed a 50% degradation concentration (DC50) of 2.61 nM and a Dmax of 41.7%.

As to `CCc1nc(C2CCC(=O)NC2=O)ccc1N1CC[C@H](N2CCN(c3ccc4c(c3)N3C[C@H]5C[C@@H]5CCOc5c(cnn5C)-c5cc(cc(C)n5)C(=O)/N=C/3N4)CC2)[C@H](F)C1` (stereo partly drawn) [Example 31, 3-(5-((3R,4S)-4-(4-((7^1S,7^2R,E)-1^1,2^6-dimethyl-3-oxo-5^2,5^3-dihydro-1^1H,5^1H-10-oxa-4-aza-5 (2,1)-benzo[d]imidazola-2 (2,4)-pyridina-1 (4,5)-pyrazola-7 (1,2)-cyclopropanacyclodecaphane-5^6-yl)piperazin-1-yl)-3-fluoropiperidin-1-yl)-6-ethylpyridin-2-yl)piperidine-2,6-dione], in experiment [1], it took 4.61 nM to reach half-maximal degradation (DC50) and the Dmax came out at 89.5%. In experiment [2], this compound came in with a DC50 of 9.56 nM and a Dmax of 69.3%.

In experiment [1], `Cc1cc2cc(n1)-c1cnn(C)c1OCC[C@H]1C[C@@H]1CN1/C(=N/C2=O)Nc2ccc(N3CCN(CC4CN(c5ccc6c(c5)C(C)(C)C(=O)N6C5CCC(=O)NC5=O)C4)CC3)cc21` (some centres unmarked) [Example 13, 3-(5-(3-((4-((7^1S,7^2R,E)-1^1,2^6-dimethyl-3-oxo-5^2,5^3-dihydro-1^1H,5^1H-10-oxa-4-aza-5 (2,1)-benzo[d]imidazola-2 (2,4)-pyridina-1 (4,5)-pyrazola-7 (1,2)-cyclopropanacyclodecaphane-5^6-yl)piperazin-1-yl)methyl)azetidin-1-yl)-3,3-dimethyl-2-oxoindolin-1-yl)piperidine-2,6-dione] returned a DC50 of 8.09 nM and a Dmax of 82.2%.

As to `Cc1cc2cc(n1)-c1cnn(C)c1OCC[C@H]1C[C@@H]1CN1/C(=N/C2=O)Nc2ccc(N3CCN(C4CN(C5CCN(c6c(C)cc(C7CCC(=O)NC7=O)nc6C)CC5)C4)C[C@@H]3C)cc21` (stereo partly drawn) [Example 22, 3-(5-(4-(3-((S)-4-((7^1S,7^2R,E)-1^1,2^6-dimethyl-3-oxo-5^2,5^3-dihydro-1^1H,5^1H-10-oxa-4-aza-5 (2,1)-benzo[d]imidazola-2 (2,4)-pyridina-1 (4,5)-pyrazola-7 (1,2)-cyclopropanacyclodecaphane-5^6-yl)-3-methylpiperazin-1-yl)azetidin-1-yl)piperidin-1-yl)-4,6-dimethylpyridin-2-yl)piperidine-2,6-dione], the 50% degradation concentration (DC50) in experiment [1] turned out to be 3.97 nM; in experiment [2] it was 2.83 nM. For the same compound, the results for the Dmax in experiment [1] and in experiment [2] were 83.2% and 67.9%, respectively.

In experiment [1], `Cc1cc2cc(n1)-c1cnn(C)c1OCC[C@H]1C[C@@H]1CN1/C(=N/C2=O)Nc2ccc(N3CCN(C4CN(C5CCN(c6c(C)cc(C7CCC(=O)NC7=O)nc6C)CC5)C4)C[C@H]3C)cc21` (stereo partly drawn) [Example 24, 3-(5-(4-(3-((R)-4-((7^1S,7^2R,E)-1^1,2^6-dimethyl-3-oxo-5^2,5^3-dihydro-1^1H,5^1H-10-oxa-4-aza-5 (2,1)-benzo[d]imidazola-2 (2,4)-pyridina-1 (4,5)-pyrazola-7 (1,2)-cyclopropanacyclodecaphane-5^6-yl)-3-methylpiperazin-1-yl)azetidin-1-yl)piperidin-1-yl)-4,6-dimethylpyridin-2-yl)piperidine-2,6-dione] returned a half-maximal degradation concentration (DC50) of 3.66 nM and a Dmax of 80%. In experiment [2], half-maximal degradation (DC50) was put at 2.08 nM and the Dmax was determined as 49.8%.

Consider `Cc1cc2cc(n1)-c1cnn(C)c1OCC[C@]1(C)C[C@H]1CN1/C(=N/C2=O)Nc2ccc(N3CCN(C4CCN(c5cc(F)c([C@H]6CCC(=O)NC6=O)c(F)c5)CC4)CC3)cc21` [Example 17, (R)-3-(2,6-difluoro-4-(4-(4-((7^1R,7^2S,E)-1^1,2^6,7^2-trimethyl-3-oxo-5^2,5^3-dihydro-1^1H,5^1H-10-oxa-4-aza-5 (2,1)-benzo[d]imidazola-2 (2,4)-pyridina-1 (4,5)-pyrazola-7 (1,2)-cyclopropanacyclodecaphane-5^6-yl)piperazin-1-yl)piperidin-1-yl)phenyl)piperidine-2,6-dione], for which, in experiment [1], the half-maximal degradation concentration (DC50) was 2.32 nM and the Dmax came to 84.1%. Moreover, in experiment [2], half-maximal degradation (DC50) was put at 1.6 nM and the greatest degradation seen (Dmax) worked out at 68.7%.

Turning to `Cc1cc2cc(n1)-c1cnn(C)c1OCC[C@H]1C[C@@H]1CN1/C(=N/C2=O)Nc2ccc(N3CCC(N4CC5CCC4CN5c4ccc(C5CCC(=O)NC5=O)nc4C)CC3)cc21` (some centres unmarked) [Example 5, 3-(5-(5-(1-((7^1S,7^2R,E)-1^1,2^6-dimethyl-3-oxo-5^2,5^3-dihydro-1^1H,5^1H-10-oxa-4-aza-5 (2,1)-benzo[d]imidazola-2 (2,4)-pyridina-1 (4,5)-pyrazola-7 (1,2)-cyclopropanacyclodecaphane-5^6-yl)piperidin-4-yl)-2,5-diazabicyclo[2.2.2]octan-2-yl)-6-methylpyridin-2-yl)piperidine-2,6-dione], in experiment [1], it took 72.2 nM to reach half-maximal degradation (DC50) and the Dmax came to 70.3%.

In experiment [1], `Cc1cc2cc(n1)-c1cnn(C)c1OCC[C@H]1C[C@@H]1CN1/C(=N/C2=O)Nc2ccc(N3CC4CCC3CN4C3CCN(c4ccc(C5CCC(=O)NC5=O)nc4C)CC3)cc21` (some centres unmarked) [Example 6, 3-(5-(4-(5-((7^1S,7^2R,E)-1^1,2^6-dimethyl-3-oxo-5^2,5^3-dihydro-1^1H,5^1H-10-oxa-4-aza-5 (2,1)-benzo[d]imidazola-2 (2,4)-pyridina-1 (4,5)-pyrazola-7 (1,2)-cyclopropanacyclodecaphane-5^6-yl)-2,5-diazabicyclo[2.2.2]octan-2-yl)piperidin-1-yl)-6-methylpyridin-2-yl)piperidine-2,6-dione] had a 50% degradation concentration (DC50) of 17.1 nM and a Dmax of 82.2%.

In experiment [1], `Cc1cc2cc(n1)-c1cnn(C)c1OCC[C@H]1C[C@@H]1CN1/C(=N/C2=O)Nc2ccc(N3CCC(N4CC5CCC(C4)N5c4ccc(C5CCC(=O)NC5=O)nc4C)CC3)cc21` (some centres unmarked) [Example 4, 3-(5-(3-(1-((7^1S,7^2R,E)-1^1,2^6-dimethyl-3-oxo-5^2,5^3-dihydro-1^1H,5^1H-10-oxa-4-aza-5 (2,1)-benzo[d]imidazola-2 (2,4)-pyridina-1 (4,5)-pyrazola-7 (1,2)-cyclopropanacyclodecaphane-5^6-yl)piperidin-4-yl)-3,8-diazabicyclo[3.2.1]octan-8-yl)-6-methylpyridin-2-yl)piperidine-2,6-dione] returned a DC50 of 52.5 nM and a Dmax of 63.6%.

In experiment [1], `Cc1cc2cc(n1)-c1cnn(C)c1OCC[C@H]1C[C@@H]1CN1/C(=N/C2=O)Nc2ccc(N3CCN(C[C@@H]4CCN(c5ccc(C6CCC(=O)NC6=O)nc5C)C4)CC3)cc21` (stereo partly drawn) [Example 9, 3-(5-((S)-3-((4-((7^1S,7^2R,E)-1^1,2^6-dimethyl-3-oxo-5^2,5^3-dihydro-1^1H,5^1H-10-oxa-4-aza-5 (2,1)-benzo[d]imidazola-2 (2,4)-pyridina-1 (4,5)-pyrazola-7 (1,2)-cyclopropanacyclodecaphane-5^6-yl)piperazin-1-yl)methyl)pyrrolidin-1-yl)-6-methylpyridin-2-yl)piperidine-2,6-dione] registered a 50% degradation concentration (DC50) of 85.4 nM and a maximal degradation (Dmax) of 74.9%.

In experiment [1], `Cc1cc2cc(n1)-c1cnn(C)c1OCC[C@H]1C[C@@H]1CN1/C(=N/C2=O)Nc2ccc(NC3CN(C4CCN(c5cnc(C6CCC(=O)NC6=O)cc5C)CC4)C3)cc21` (some centres unmarked) [Example 1, 3-(5-(4-(3-(((7^1S,7^2R,E)-1^1,2^6-dimethyl-3-oxo-5^2,5^3-dihydro-1^1H,5^1H-10-oxa-4-aza-5 (2,1)-benzo[d]imidazola-2 (2,4)-pyridina-1 (4,5)-pyrazola-7 (1,2)-cyclopropanacyclodecaphane-5^6-yl)amino)azetidin-1-yl)piperidin-1-yl)-4-methylpyridin-2-yl)piperidine-2,6-dione] came in with a 50% degradation concentration (DC50) of 15.7 nM and a maximal degradation (Dmax) of 68.4%.

Usually DC50 stands for the midpoint of the concentration-degradation curve. Read a high DC50 as degradation only at high concentration. A word on the Dmax: it is the greatest extent of degradation seen. A higher Dmax goes with a fuller loss of target.
